According to patent publication US20250127774A1, “COMPOUNDS FOR LABELLING NUCLEIC ACID AND USES THEREOF” (THE ROYAL INSTITUTION FOR THE ADVANCEMENT OF …, priority 2022, published 2025):

Key:
[1] = test system: VdU-labeled DNA in living Hela cells; experiment: Live-cell metabolic labeling, PINK staining kinetics; assay type: cell-based
Description: To evaluate the ability of PINK to enter live cells and undergo fluorogenic reactions with vinyl groups in native chromatin, Hela cells were grown in rich media containing 10 μM VdU for 15 h and subsequently stained with 1-2 μM PINK for 4 h. Total cellular DNA was counterstained with Hoechst […] (5 μM; 405 nm laser; emission 410-480 nm) for 10 minutes prior to imaging PINK (514 nm laser; emission 570-700 nm). Control (ctrl) samples were treated with PINK but not VdU. All cells were treated and maintained in DMEM media containing 10% FBS and grown in 5% CO2 at 37° C. Live cell images were acquired using a confocal microscope.
The intracellular reaction kinetics of PINK staining was next investigated. Cells were seeded at a concentration of 2.5×10^4 cells/mL, allowed to settle overnight, and incubated with 100 μM VdU for 24 h. Cells were stained with 10 μM PINK between 10 min and 25 h, co-stained with Hoechst 33342 (5 μg/mL), and images were acquired on a confocal microscope. Samples were optimized for an ideal signal to noise ratio after staining for 1 h, illustrating a sufficiently bright signal at this stage. Ctrl samples were exposed to PINK for 25 h, thus explaining the relatively high background. […] Labeling was efficient in multiple cell lines. U2OS cells were seeded in μ-slide 8-well (Ibidi®) (3.0×10^4 cells in 200 μL; 1.5×10^5 cells/mL) in DMEM and given 20 h to settle. Cells were aspirated and VdU (0-100 μM in 200 μL DMEM) was added. Cells were incubated for 18 h, aspirated, and PINK (5 μM in 200 μL DMEM, 0.05% DMSO) was added. Cells were incubated for 5 h, aspirated, and Hoechst 33342 (2 μg/mL in 200 μL DMEM) was added for 15 min. Cells were aspirated and the media was exchanged for 200 μL DMEM (-Phenol Red). Images were acquired on a confocal microscope (FIG. 11). […] Cells (5.0×10^4 cells/mL) were seeded and allowed to settle overnight. Cells were incubated with 20 μM VdU for 16 h and stained with 2 μM PINK for 5 h, Cells were aspirated and fresh media (w/o Phenol Red) was added. Control Samples received identical treatment, but were not exposed to VdU. […]

[2] = test system: duplex DNA containing VdU (vinyl-modified ODN); experiment: Kinetic measurements with ODNs (DNA-templated PINK-VdU reaction); details: 50 mM aq. NaOAc buffer pH 5.2 (0.8% DMSO)
Excerpt: A) Relative fluorescence units (RFU) of PINK upon reaction with vinyl-modified ODN versus time. […] B) Normalized increase of fluorescence. C) Plot of the observed rates k′ against PINK concentration. The slope yields the rate constant k.
To characterize DNA-templated PINK-VdU reactions, a VdU-containing, palindromic 17-mer DNA oligonucleotide “ODN1” was synthesized (Table 1). The DMT-protected VdU phosphoramidite S4 (Scheme 2)^[51] was incorporated into the oligomer utilizing standard solid phase supported DNA synthesis. ODN1 was purified using reverse-phase HPLC and annealed with a complimentary strand to form a duplex. […] By tracking the fluorescence changes under pseudo-first order conditions (FIG. 8), an apparent rate constant k=590 M^−1 s^−1 was determined for the reaction between PINK and the duplex DNA containing VdU. […]
Kinetic Measurements with ODNs. Second-order rate constants for the reaction between vinyl-modified ODN and PINK were determined under pseudo first order conditions employing an excess of the tetrazine. […] Measurements were performed on a SpectraMax M5 plate reader (Molecular Devices, Sunnyvale, CA, USA) in 384 well plates (Greiner bio-one, cat-#871906; 40 μL per well). […] Samples were measured over the course of 1 h in intervals of 45 s. […] Reactions rates were calculated using pseudo first order approximations fitting the measurements to mono exponential equations. […]

MOLM-13 cells = experiment: Resazurin combination toxicity assay; assay type: cell-based, human; details: Homo sapiens, MOLM-13, MOLM-13; variable VdU/VdA alone or with 1 μM PINK added 24 h post nucleoside addition; read-out: IC50 value (48 h) for sequential addition
Description: From the single toxicity experiment, it was determined that the optimal subtoxic concentration of PINK to be used for the combination toxicity assays would be 1 μM. To test how effective the vinyl-nucleosides (VdU/VdA) in combination with PINK are at killing the cells compared to the vinyl-nucleosides alone, another resazurin reduction assay was carried out.
Resazurin Combination toxicity assays. MV4-11, MOLM-13 and Jurkat cells were seeded in 96-well plates at a density of 20 000 cells/well, 25 000 cells/well and 30 000 cells/well, respectively, in triplicates. For the sequential addition, the cells were first treated with the nucleosides (VdU/VdA) diluted in fresh media in 1:4 serial dilutions (˜0.01% DMSO) at concentrations of 500-0 μM, and incubated overnight. 24h post nucleoside addition, the cells were treated with 1 μM PINK diluted in fresh media (˜1% DMSO), and incubated for 24-72h. The cells were treated with resazurin, incubated and measured, as described above. For the simultaneous addition, the cells were treated with nucleosides and PINK on the same day at the same concentrations as describes above, and incubated for 24-72h.

[3] = 100 μM VdU 24 h, then 10 μM PINK

SMILES | retention of fluorescent signal in living cells ([1]; 20 μM VdU 16 h, 2 μM PINK 5 h, fresh media, t=0, 24 h) | incubation time after which a clear signal above background is observed [1, 3] | staining duration ideal to achieve complete labeling [1, 3] | apparent rate constant k, reaction with duplex DNA containing VdU ([2]; 4 μM vinyl-modified ODN, PINK 3-5 eq) | stability of PINK under control conditions (without vinyl-modified ODN) ([2]; 12-20 μM PINK, 1 h) | IC50 (MOLM-13 cells)
Cc1nnc(-c2ccc3cc4ccc(N(C)C)cc4nc3c2)nn1 [PINK] | retained in living cells 24 h after being removed from the media | 1 h | 5 h | 590 M⁻¹ s⁻¹ | full stability | –
C=Cc1cn([C@H]2C[C@H](O)[C@@H](CO)O2)c(=O)[nH]c1=O [VdU, 5-vinyl-2′-deoxyuridine] | – | – | – | – | – | 18 µM
